One block for each compound: values may come before it. The source made the active and inactive calls. The rule behind the calls is not given here.
Columns and labels:
[1] = target: T1, Nuclear receptor subfamily 4immunitygroup A member 1 (Homo sapiens, UniProt P22736); assay: Agonist activity at human Nur77 LBD transiently transfected in HEK293T cells incubated for 16 hrs by Gal4-hybrid reporter gene based Dual-glo luciferase assay; type: cell-based
[2] = target: T2, Nuclear receptor subfamily 4 group A member 3 (Homo sapiens, UniProt Q92570); assay: Agonist activity at human NOR-1 LBD transiently transfected in HEK293T cells incubated for 16 hrs by Gal4-hybrid reporter gene based Dual-glo luciferase assay; type: cell-based
T2 sequence (Q92570 whole entry, the tested form may be a part): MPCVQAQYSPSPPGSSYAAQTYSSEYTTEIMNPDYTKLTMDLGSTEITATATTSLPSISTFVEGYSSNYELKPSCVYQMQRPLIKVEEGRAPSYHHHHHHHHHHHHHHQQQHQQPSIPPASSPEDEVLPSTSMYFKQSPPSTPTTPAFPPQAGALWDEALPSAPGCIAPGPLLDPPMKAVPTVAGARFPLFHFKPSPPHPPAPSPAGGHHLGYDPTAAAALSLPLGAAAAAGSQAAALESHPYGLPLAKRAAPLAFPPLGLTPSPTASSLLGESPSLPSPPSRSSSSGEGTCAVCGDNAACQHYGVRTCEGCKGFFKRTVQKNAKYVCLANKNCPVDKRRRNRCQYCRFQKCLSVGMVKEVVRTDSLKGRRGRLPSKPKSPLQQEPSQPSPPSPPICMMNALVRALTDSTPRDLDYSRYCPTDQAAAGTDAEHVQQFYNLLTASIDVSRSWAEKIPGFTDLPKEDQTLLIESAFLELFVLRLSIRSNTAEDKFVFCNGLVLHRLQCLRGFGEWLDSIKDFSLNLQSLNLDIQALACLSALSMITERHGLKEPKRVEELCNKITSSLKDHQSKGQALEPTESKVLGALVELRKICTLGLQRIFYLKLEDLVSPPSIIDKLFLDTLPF

[3] = target: T1, Nuclear receptor subfamily 4immunitygroup A member 1; assay: Modulation of human Nur77 LBD transiently transfected in HEK293T cells at 100 to 200 uM incubated for 16 hrs by Gal4-hybrid reporter gene based Dual-glo luciferase assay; type: cell-based; conditions: dose 100-200 µM
[4] = target: T3, Nuclear receptor subfamily 4 group A member 2 (Homo sapiens, UniProt P43354); assay: Agonist activity at human Nurr1 LBD transiently transfected in HEK293T cells incubated for 16 hrs by Gal4-hybrid reporter gene based Dual-glo luciferase assay; type: cell-based
T3 sequence (P43354 whole entry, the tested form may be a part): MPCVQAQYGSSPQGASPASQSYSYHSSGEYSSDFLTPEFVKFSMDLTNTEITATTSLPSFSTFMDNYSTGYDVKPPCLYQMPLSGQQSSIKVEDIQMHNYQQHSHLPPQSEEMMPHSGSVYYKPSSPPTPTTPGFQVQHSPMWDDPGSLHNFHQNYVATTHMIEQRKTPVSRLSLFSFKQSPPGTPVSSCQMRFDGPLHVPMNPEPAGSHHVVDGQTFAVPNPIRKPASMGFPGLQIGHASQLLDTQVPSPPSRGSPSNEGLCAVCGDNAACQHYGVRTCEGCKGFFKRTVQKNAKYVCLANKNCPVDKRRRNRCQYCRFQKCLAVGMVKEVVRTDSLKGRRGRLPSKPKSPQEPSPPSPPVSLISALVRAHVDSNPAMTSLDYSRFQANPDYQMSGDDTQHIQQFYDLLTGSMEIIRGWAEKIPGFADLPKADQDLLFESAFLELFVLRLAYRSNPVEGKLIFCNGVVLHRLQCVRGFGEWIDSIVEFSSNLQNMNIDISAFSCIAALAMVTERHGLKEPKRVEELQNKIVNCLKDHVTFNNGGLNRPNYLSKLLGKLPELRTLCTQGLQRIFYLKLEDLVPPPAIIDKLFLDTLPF

[5] = target: T2, Nuclear receptor subfamily 4 group A member 3; assay: Inverse agonist activity at human NOR-1 LBD transiently transfected in HEK293T cells incubated for 16 hrs by Gal4-hybrid reporter gene based Dual-glo luciferase assay; type: cell-based
[6] = target: T1, Nuclear receptor subfamily 4immunitygroup A member 1; assay: Inverse agonist activity at human Nur77 LBD transiently transfected in HEK293T cells incubated for 16 hrs by Gal4-hybrid reporter gene based Dual-glo luciferase assay; type: cell-based
[7] = target: T2, Nuclear receptor subfamily 4 group A member 3; assay: Modulation of human NOR-1 LBD transiently transfected in HEK293T cells at 100 to 200 uM incubated for 16 hrs by Gal4-hybrid reporter gene based Dual-glo luciferase assay; type: cell-based; conditions: dose 100-200 µM
[8] = target: T2, Nuclear receptor subfamily 4 group A member 3; assay: Agonist activity at human NOR-1 LBD transiently transfected in HEK293T cells assessed as maximal activation incubated for 16 hrs by Gal4-hybrid reporter gene based Dual-glo luciferase assay relative to control; type: cell-based; conditions: filed as agonist
[9] = target: T1, Nuclear receptor subfamily 4immunitygroup A member 1; assay: Agonist activity at human Nur77 LBD transiently transfected in HEK293T cells assessed as maximal activation incubated for 16 hrs by Gal4-hybrid reporter gene based Dual-glo luciferase assay relative to control; type: cell-based; conditions: filed as agonist
[10] = target: T3, Nuclear receptor subfamily 4 group A member 2; assay: Inverse agonist activity at human Nurr1 LBD transiently transfected in HEK293T cells incubated for 16 hrs by Gal4-hybrid reporter gene based Dual-glo luciferase assay; type: cell-based
[11] = target: T3, Nuclear receptor subfamily 4 group A member 2; assay: Binding affinity to recombinant N-terminal 6His-tagged Nurr1 LBD (362 to 598 residues) (unknown origin) expressed in Escherichia coli BL21(DE3)-R3-pRARE2 cells assessed as thermal stability by measuring change in melting temperature at 100 uM by SYPRO orange dye based differential scanning fluorimetry analysis

T1 sequence (P22736 whole entry, the tested form may be a part): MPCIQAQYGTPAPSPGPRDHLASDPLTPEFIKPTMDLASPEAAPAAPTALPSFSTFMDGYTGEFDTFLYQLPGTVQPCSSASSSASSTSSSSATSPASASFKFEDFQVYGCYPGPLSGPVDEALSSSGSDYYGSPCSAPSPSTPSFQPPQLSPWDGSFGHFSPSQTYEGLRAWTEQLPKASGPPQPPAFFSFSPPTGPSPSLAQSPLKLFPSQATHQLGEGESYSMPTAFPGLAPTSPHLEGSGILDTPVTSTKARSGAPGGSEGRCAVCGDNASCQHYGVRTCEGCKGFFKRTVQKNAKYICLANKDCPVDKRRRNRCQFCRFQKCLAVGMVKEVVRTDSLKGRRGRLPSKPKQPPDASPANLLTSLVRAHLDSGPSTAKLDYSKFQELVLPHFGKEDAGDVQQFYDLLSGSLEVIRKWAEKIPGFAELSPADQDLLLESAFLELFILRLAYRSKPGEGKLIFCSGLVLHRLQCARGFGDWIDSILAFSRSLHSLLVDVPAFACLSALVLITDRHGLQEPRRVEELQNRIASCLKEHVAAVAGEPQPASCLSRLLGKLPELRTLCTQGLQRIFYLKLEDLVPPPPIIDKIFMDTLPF

EC50 [1]: > 100 µM | EC50 [2]: 73 µM
Structure (SMILES): CCc1c(C(=O)O)cnn1-c1ccccc1

Activity [3]: inactive
Structure (SMILES): CCC(Oc1cc(Cl)cc(Cl)c1)C(=O)O (stereo unspecified)

EC50 ([4]; read-out: EC50): 8 µM
Structure (SMILES): O=C(O)c1cccc(OCc2ccccc2)c1

Structure (SMILES): COc1cc(C(=O)O)cc(OC)c1OC
Activity [3]: inactive

EC50 ([4]; read-out: EC50): 0.05 µM
Structure (SMILES): O=C(O)c1ccc(OCc2ccccc2Cl)cc1

EC50 ([4]; read-out: EC50): 3 µM
Structure (SMILES): O=C(O)c1cccc(OCc2ccccc2Cl)c1

EC50 ([4]; read-out: EC50): 6 µM
Structure (SMILES): O=C(O)c1ccc(OCc2ccc(Cl)cc2)cc1

EC50 ([4]; hek293t): Not Determined(Insoluble)
Structure (SMILES): O=C(O)c1ccc(OCc2cccc(-c3ccccc3)c2)cc1

IC50 [5]: > 100 µM | IC50 [6]: > 100 µM
Structure (SMILES): O=C(O)C(c1ccccc1)(c1ccccc1)c1ccccc1

Activity [3]: inactive | Activity [7]: inactive
Structure (SMILES): O=Cc1ccc(C(=O)O)cc1

IC50 [5]: > 100 µM | IC50 [6]: > 100 µM
Structure (SMILES): O=C(O)c1ccccc1CCc1ccccc1

Activity [3]: inactive
Structure (SMILES): Cn1nnc2c(C(=O)O)ncn2c1=O

EC50 [1]: 9 µM | Emax [8]: 148% | EC50 [2]: 6 µM | Emax [9]: 158% | EC50 ([4]; read-out: EC50): 6 µM
Structure (SMILES): O=C(O)c1ccc(-c2cccc(F)c2)o1

Structure (SMILES): O=C(O)c1ccc(Oc2ccccc2)cc1
Activity [3]: inactive

IC50 [5]: 111 µM | IC50 [6]: 99 µM | IC50 [10]: > 100 µM
Structure (SMILES): O=C(O)c1ccccc1C(=O)c1ccc(Cl)cc1

EC50 [1]: 28 µM | Emax [8]: 157% | EC50 [2]: 36 µM | Emax [9]: 162% | EC50 ([4]; read-out: EC50): 76 µM
Structure (SMILES): C/C(=C\C(=O)O)c1ccc(C(F)(F)F)cc1

EC50 [1]: 48 µM | Emax [8]: 136% | EC50 [2]: 56 µM | Emax [9]: 183% | EC50 ([4]; read-out: EC50): 54 µM
Structure (SMILES): O=C(O)c1cccc2ccccc12 [NAPHTHOIC ACID]

Activity [3]: inactive
Structure (SMILES): O=C(O)c1ccnc2ccccc12

EC50 ([4]; read-out: EC50): 19 µM
Structure (SMILES): O=C(O)c1cccc(OCc2ccc(F)cc2)c1

Activity [7]: inactive
Structure (SMILES): O=C(O)/C=C/c1ccc(Cl)c(Cl)c1

EC50 [1]: 8 µM | Emax [8]: 166% | EC50 [2]: 13 µM | Emax [9]: 158% | EC50 ([4]; read-out: EC50): 9 µM
Structure (SMILES): O=C(O)c1ccc(OCc2ccccc2)cc1

EC50 ([4]; read-out: EC50): 18 µM
Structure (SMILES): O=C(O)c1ccc(OCc2cccc(C(F)(F)F)c2)cc1

EC50 [1]: 0.04 µM | EC50 [2]: 0.15 µM
Structure (SMILES): O=C(O)c1cccc(OCc2ccc(Cl)cc2Cl)c1

ΔTm [11]: -0.94 °C
Structure (SMILES): COc1cccc(-c2ccc(NC(=O)C3=C(C(=O)O)CCC3)c(F)c2)c1

Activity [7]: inactive
Structure (SMILES): O=C(O)CC(c1ccccc1)c1ccccc1

Activity [3]: inactive
Structure (SMILES): O=C(O)CN(CCO)CCO

Activity [3]: inactive
Structure (SMILES): COc1ccccc1CC(=O)O

EC50 [1]: > 100 µM | EC50 [2]: > 100 µM | EC50 ([4]; read-out: EC50): 90 µM
Structure (SMILES): O=C(O)CCC(=O)c1ccccc1

EC50 ([4]; read-out: EC50): 3 µM
Structure (SMILES): O=C(O)c1cccc(OCc2cccc(F)c2)c1

IC50 [5]: > 100 µM | IC50 [6]: 9 µM | IC50 [10]: 37 µM
Structure (SMILES): CSc1nccn1-c1ccc(C(=O)O)cc1

Activity [7]: inactive
Structure (SMILES): CN(C)c1ccc(/N=N/c2ccccc2C(=O)O)cc1

IC50 [5]: > 100 µM | IC50 [6]: > 100 µM
Structure (SMILES): N#Cc1c(F)c(F)cc(C(=O)O)c1F

EC50 ([4]; read-out: EC50): 12 µM
Structure (SMILES): O=C(O)c1ccc(OCc2ccc(F)cc2)cc1
